Assays:
Rattus norvegicus [1] = organism: Rattus norvegicus; assay: Compound was tested for the vasorelaxation in rat aorta rings pre-contracted with KCl 60 mM; type: functional, organism-based
Rattus norvegicus [2] = organism: Rattus norvegicus; assay: Compound was tested for the vasorelaxation in rat aorta rings pre-contracted with noradrenaline (NA) 10 uM; type: functional, organism-based
Rattus norvegicus [3] = organism: Rattus norvegicus; assay: Antagonist PD'2 which is the negative logarithm of the molar concentration of antagonist required to cause 50% depression of the maximal response of the agonist was determined; type: functional
Rattus norvegicus [4] = organism: Rattus norvegicus; assay: Effect on concentration dependent contractions in rat aortic rings expressed as pD2 value; type: functional, Aorta

Structure (SMILES) | IC50 (Rattus norvegicus [1]) [µM] | IC50 (Rattus norvegicus [2]) [µM] | PD'2 (Rattus norvegicus [3]) | pD2 (Rattus norvegicus [4])
Cc1coc2cc3oc(=O)cc(CO)c3cc12 | 54 | 68.4 | 4.73 | –
COc1c(O)ccc2c(CO)cc(=O)oc12 | 1010 | 933 | 2.57 | –
CC(=O)COc1c2occ(C)c2cc2c(CO)cc(=O)oc12 | 93.3 | 52.6 | – | –
COc1c2occ(C)c2cc2c(CO)cc(=O)oc12 | 42.6 | 42 | – | –
CC(=O)COc1ccc2c(CO)cc(=O)oc2c1OCC(C)=O | > 1000 | > 1000 | – | –
CCOC(=O)COc1ccc2c(C)c(CCN(CC)CC)c(=O)oc2c1 [CHROMONAR] | > 1000 | > 1000 | – | –
COc1c2occc2c(OC)c2c(=O)cc(C)oc12 [KHELLIN] | 316 | 309 | 4.46 | –
NC[C@H](O)c1ccc(O)c(O)c1 [NOREPINEPHRINE] | – | – | – | 6.07

— ChEMBL document CHEMBL1135963, “Synthesis and vasorelaxant activity of new coumarin and furocoumarin derivatives” (Bioorg Med Chem Lett, 2002)
